Laboratory results from patent publication US20100119483A1, “PEPTIDE VIRAL ENTRY INHIBITORS” (Schering Corporation, priority 2004, published 2010).
Several values for one entry are separate records, joined by “and”; a condition that tells them apart may be missing. Equal values may be shown once.

Test system: HCV pseudoparticles
Assay: HCV pseudoparticle (HCVpp) entry assay in Huh7 hepatoma cells, luciferase readout
Format: cell-based, hepatitis C virus
In short: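 Pseudoparticles carrying HCV E1/E2 on an HIV luciferase backbone were produced in 293T cells; peptide was pre-incubated 1 h at 37 °C with Huh7 cells, then virus added and luciferase read after 72 h. Dose-response used 10-point 3-fold titration from 100 ug/ml; envelope-less particles controlled non-specific entry.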

[1] = 0.3 nM of peptide, two values per peptide
[2] = 1 nM of peptide, two values per peptide
[3] = 3 nM of peptide, two values per peptide
[4] = 10 nM of peptide, two values per peptide
[5] = 30 nM of peptide, two values per peptide
[6] = 100 nM of peptide, two values per peptide
[7] = 300 nM of peptide, two values per peptide
[8] = 10000 nM of peptide, two values per peptide
[9] = 30000 nM of peptide, two values per peptide
[10] = 0.1 nM of peptide (printed for three rows), two values per peptide and row

Substance | % control (HCVpp entry), proline scanning [10] | % control (HCVpp entry), proline scanning [1] | % control (HCVpp entry), proline scanning [2] | % control (HCVpp entry), proline scanning [3] | % control (HCVpp entry), proline scanning [4] | % control (HCVpp entry), proline scanning [5] | % control (HCVpp entry), proline scanning [6] | % control (HCVpp entry), proline scanning [7] | % control (HCVpp entry), proline scanning [8] | % control (HCVpp entry), proline scanning [9] | further results
A-I-K-W-E-Y-V-L-L-L-K-L-L (AIKWEYVLLLKLL; HCV peptide) [SEQ ID NO: 135] | – | – | – | – | – | – | – | – | – | – | % control (HCVpp entry), lysine scanning [1]: 72 % control and 99 % control; % control (HCVpp entry), lysine scanning [2]: 76 % control and 84 % control; % control (HCVpp entry), lysine scanning [3]: 67 % control and 74 % control; % control (HCVpp entry), lysine scanning [4]: 79 % control and 104 % control; % control (HCVpp entry), lysine scanning [5]: 90 % control and 89 % control; % control (HCVpp entry), lysine scanning [6]: 75 % control and 107 % control; % control (HCVpp entry), lysine scanning [7]: 87 % control and 70 % control; % control (HCVpp entry), lysine scanning [8]: 57 % control and 43 % control; % control (HCVpp entry), lysine scanning [9]: 37 % control and 29 % control
A-I-K-W-E-Y-V-L-L-L-P-L-L (AIKWEYVLLLPLL; HCV peptide) [SEQ ID NO: 125] | 99 % control and 91 % control and 92 % control and 111 % control and 101 % control and 95 % control | 104 % control | 99 % control and 75 % control | 82 % control and 85 % control | 109 % control and 97 % control | 102 % control and 80 % control | 58 % control and 60 % control | 76 % control and 63 % control | 54 % control and 73 % control | 59 % control and 68 % control | –
A-I-K-W-E-Y-V-L-L-P-F-L-L (AIKWEYVLLPFLL; HCV peptide) [SEQ ID NO: 124] | 87 % control and 98 % control and 89 % control and 104 % control and 109 % control and 97 % control | 74 % control and 88 % control | 89 % control and 102 % control | 80 % control and 86 % control | 67 % control and 102 % control | 48 % control and 71 % control | 66 % control and 83 % control | 85 % control and 68 % control | 85 % control and 60 % control | 98 % control and 67 % control | –
A-I-K-W-E-Y-V-L-P-L-F-L-L (AIKWEYVLPLFLL; HCV peptide) [SEQ ID NO: 123] | 78 % control and 81 % control and 104 % control and 86 % control and 117 % control and 94 % control | 80 % control and 91 % control | 108 % control and 77 % control | 92 % control and 78 % control | 78 % control and 76 % control | 74 % control and 75 % control | 72 % control and 61 % control | 41 % control and 44 % control | 61 % control and 51 % control | 31 % control and 49 % control | –
A-I-K-W-E-Y-V-P-L-L-F-L-L (AIKWEYVPLLFLL; HCV peptide) [SEQ ID NO: 122] | 81 % control and 70 % control and 89 % control and 86 % control and 115 % control and 111 % control | 105 % control and 83 % control | 73 % control and 100 % control | 106 % control and 80 % control | 85 % control and 67 % control | 70 % control and 113 % control | 75 % control and 59 % control | 76 % control and 53 % control | 54 % control and 43 % control | – | –
A-I-K-W-G-Y-V-L-L-L-F-L-L (AIKWGYVLLLFLL; HCV peptide) [SEQ ID NO: 84, Gly-scan] | – | – | – | – | – | – | – | – | – | – | % control (HCVpp entry), glycine scanning (0.00003 uM of peptide, two values per peptide and row): 118 % control and 84 % control and 87 % control and 110 % control; % control (HCVpp entry), glycine scanning (0.0001 uM of peptide, two values per peptide): 62 % control and 75 % control; % control (HCVpp entry), glycine scanning (0.0003 uM of peptide, two values per peptide): 91 % control and 81 % control; % control (HCVpp entry), glycine scanning (0.001 uM of peptide, two values per peptide): 74 % control and 73 % control; % control (HCVpp entry), glycine scanning (0.003 uM of peptide, two values per peptide): 70 % control; % control (HCVpp entry), glycine scanning (0.01 uM of peptide, two values per peptide): 72 % control and 53 % control; % control (HCVpp entry), glycine scanning (0.03 uM of peptide, two values per peptide): 62 % control and 52 % control; % control (HCVpp entry), glycine scanning (0.1 uM of peptide, two values per peptide): 41 % control and 39 % control; % control (HCVpp entry), glycine scanning (0.3 uM of peptide, two values per peptide): 37 % control and 57 % control; % control (HCVpp entry), glycine scanning (30 uM of peptide, two values per peptide): 22 % control and 38 % control; % of control at ~30 uM (percentage of hepatitis C virus cellular entry at 30 μM peptide vs uninhibited control): 19%
A-I-K-W-P-Y-V-L-L-L-F-L-L (AIKWPYVLLLFLL; HCV peptide) [SEQ ID NO: 119] | 93 % control and 76 % control and 87 % control and 85 % control and 102 % control and 126 % control | 78 % control and 77 % control | 72 % control and 68 % control | 94 % control and 62 % control | 54 % control and 48 % control | – | 40 % control and 46 % control | 40 % control and 47 % control | – | 28 % control and 17 % control | –
